Experimental data: patent US20220323406A1, “METHODS AND COMPOSITIONS FOR DIFFERENTIATING STEM CELLS” (Massachusetts Institute of Technology, priority 2019, published 2022)

Legend:
[1] = system: ENR+CD organoids (ISC to Paneth cell differentiation); assay: Primary screen: basal (non-stimulated) lysozyme secretion LYZ.NS, 2.5-D 384-well ENR+CD organoid differentiation; type: cell-based, mouse; conditions: primary screen; for Z.LYZ.NS: standard z score
From the text: (§1) High-throughput screening.

[2] = system: ENR+CD organoids (ISC to Paneth cell differentiation); assay: Primary screen: CCh-stimulated lysozyme secretion LYZ.S, 2.5-D 384-well ENR+CD organoid differentiation; type: cell-based, mouse; conditions: primary screen
From the text: as §1

ENR+CD organoids = assay: Primary screen: ATP (CellTiter-Glo 3D, CTG) cell number/viability, 2.5-D 384-well ENR+CD organoids; conditions: primary screen; for Z.CTG: standard z score;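 on all read-outs here: compounds given at plating and again on day 3 over a 6-day differentiation from ENR+CV stem-cell-enriched precursors, ATP measured on day 6, plate median as control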
[3] = dose 0.08 uM, FC vs plate median
[4] = dose 0.40 uM, FC vs plate median
[5] = dose 2.00 uM, FC vs plate median
[6] = dose 10.00 uM, FC vs plate median
[7] = dose 0.08 uM, FC relative to plate median
[8] = dose 0.40 uM, FC relative to plate median
[9] = dose 2.00 uM, FC relative to plate median
[10] = dose 10.00 uM, FC relative to plate median

**Q.** How did the Z.LYZ.NS ([1]; dose 0.08 uM) turn out when `CC(=O)c1c(C)c2cnc(Nc3ccc(N4CCNCC4)cn3)nc2n(C2CCCC2)c1=O.Cl` [Palbociclib (PD-0332991) HCl] was run?
**A.** −0.055

**Q.** What about the Z.LYZ.NS ([1]; dose 0.40 uM) of the same compound?
**A.** −0.248

**Q.** What about the Z.LYZ.NS ([1]; dose 2.00 uM) of the same compound?
**A.** −0.440

**Q.** What about the Z.LYZ.NS ([1]; dose 10.00 uM) of the same compound?
**A.** −1.150

**Q.** And the Dose.FC.LYZ.NS [1, 3]?
**A.** −0.006 log2 fold change

**Q.** What about the Dose.FC.LYZ.NS [1, 4] of the same compound?
**A.** −0.029 log2 fold change

**Q.** What about the Dose.FC.LYZ.NS [1, 5] of the same compound?
**A.** −0.051 log2 fold change

**Q.** What about the Dose.FC.LYZ.NS [1, 6] of the same compound?
**A.** −0.132 log2 fold change

**Q.** What about the Dose.FC.LYZ.S [2, 3] of the same compound?
**A.** 0.004 log2 fold change

**Q.** What about the Dose.FC.LYZ.S [2, 4] of the same compound?
**A.** −0.042 log2 fold change

**Q.** And the Dose.FC.LYZ.S [2, 5]?
**A.** −0.122 log2 fold change

**Q.** What about the Dose.FC.LYZ.S [2, 6] of the same compound?
**A.** −0.203 log2 fold change

**Q.** And the Z.CTG (ENR+CD organoids; dose 0.08 uM)?
**A.** 0.404

**Q.** What about the Z.CTG (ENR+CD organoids; dose 0.40 uM) of the same compound?
**A.** −0.836

**Q.** What about the Z.CTG (ENR+CD organoids; dose 2.00 uM) of the same compound?
**A.** −0.199

**Q.** What about the Z.CTG (ENR+CD organoids; dose 10.00 uM) of the same compound?
**A.** −1.617

**Q.** And the Dose.FC.CTG (ENR+CD organoids; [3])?
**A.** 0.169 log2 fold change

**Q.** And the Dose.FC.CTG (ENR+CD organoids; [4])?
**A.** −0.350 log2 fold change

**Q.** What about the Dose.FC.CTG (ENR+CD organoids; [5]) of the same compound?
**A.** −0.083 log2 fold change

**Q.** What about the Dose.FC.CTG (ENR+CD organoids; [6]) of the same compound?
**A.** −0.677 log2 fold change

**Q.** How did the Dose.FC.LYZ.NS [1, 7] turn out when `CC(NC(=O)c1ccccc1/N=C/c1c(O)ccc2ccccc12)c1ccccc1` (stereo not shown) [Sirtinol] was run?
**A.** 0.095 log2 fold change

**Q.** And the Z.LYZ.NS ([1]; dose 0.08 uM)?
**A.** 0.824

**Q.** What about the Dose.FC.LYZ.NS [1, 8] of the same compound?
**A.** 0.000 log2 fold change

**Q.** And the Z.LYZ.NS ([1]; dose 0.40 uM)?
**A.** 0.002

**Q.** And the Dose.FC.LYZ.NS [1, 9]?
**A.** 0.061 log2 fold change

**Q.** And the Z.LYZ.NS ([1]; dose 2.00 uM)?
**A.** 0.531

**Q.** What about the Dose.FC.LYZ.NS [1, 10] of the same compound?
**A.** 0.078 log2 fold change

**Q.** What about the Z.LYZ.NS ([1]; dose 10.00 uM) of the same compound?
**A.** 0.679

**Q.** And the Dose.FC.LYZ.S [2, 7]?
**A.** 0.077 log2 fold change

**Q.** What about the Dose.FC.LYZ.S [2, 8] of the same compound?
**A.** 0.088 log2 fold change

**Q.** And the Dose.FC.LYZ.S [2, 9]?
**A.** 0.028 log2 fold change

**Q.** What about the Dose.FC.LYZ.S [2, 10] of the same compound?
**A.** 0.026 log2 fold change

**Q.** And the Dose.FC.CTG (ENR+CD organoids; [7])?
**A.** −0.218 log2 fold change

**Q.** What about the Dose.FC.CTG (ENR+CD organoids; [8]) of the same compound?
**A.** 0.009 log2 fold change

**Q.** What about the Dose.FC.CTG (ENR+CD organoids; [9]) of the same compound?
**A.** −0.120 log2 fold change

**Q.** And the Dose.FC.CTG (ENR+CD organoids; [10])?
**A.** −0.078 log2 fold change

**Q.** `NC(=O)c1ncn([C@@H]2O[C@H](CO)[C@@H](O)[C@H]2O)c1N` [Acadesine] was tested. Which Dose.FC.LYZ.NS ([1]; dose 0.08 uM) did it give?
**A.** 0.023 log2 fold change

**Q.** And the “Z.LYZ.NS (standard z score)” value ([1]; dose 0.08 uM)?
**A.** 0.198

**Q.** What about the Dose.FC.LYZ.NS ([1]; dose 0.40 uM) of the same compound?
**A.** −0.016 log2 fold change

**Q.** What about the “Z.LYZ.NS (standard z score)” value ([1]; dose 0.40 uM) of the same compound?
**A.** −0.137

**Q.** And the Dose.FC.LYZ.NS ([1]; dose 2.00 uM)?
**A.** 0.016 log2 fold change

**Q.** What about the “Z.LYZ.NS (standard z score)” value ([1]; dose 2.00 uM) of the same compound?
**A.** 0.140

**Q.** What about the Dose.FC.LYZ.NS ([1]; dose 10.00 uM) of the same compound?
**A.** −0.070 log2 fold change

**Q.** And the “Z.LYZ.NS (standard z score)” value ([1]; dose 10.00 uM)?
**A.** −0.607

**Q.** What about the Dose.FC.LYZ.S ([2]; dose 0.08 uM) of the same compound?
**A.** 0.004 log2 fold change

**Q.** And the Dose.FC.LYZ.S ([2]; dose 0.40 uM)?
**A.** −0.012 log2 fold change

**Q.** And the Dose.FC.LYZ.S ([2]; dose 2.00 uM)?
**A.** 0.053 log2 fold change

**Q.** What about the Dose.FC.LYZ.S ([2]; dose 10.00 uM) of the same compound?
**A.** −0.102 log2 fold change

**Q.** What about the Dose.FC.CTG (ENR+CD organoids; dose 0.08 uM) of the same compound?
**A.** 0.094 log2 fold change

**Q.** And the Dose.FC.CTG (ENR+CD organoids; dose 0.40 uM)?
**A.** 0.173 log2 fold change

**Q.** And the Dose.FC.CTG (ENR+CD organoids; dose 2.00 uM)?
**A.** −0.005 log2 fold change

**Q.** And the Dose.FC.CTG (ENR+CD organoids; dose 10.00 uM)?
**A.** 0.076 log2 fold change

**Q.** Which results are given for `COc1ccc2c(c1)C(=O)N(CCc1ccc(S(=O)(=O)NC(=O)NC3CCCCC3)cc1)C(=O)C2(C)C` [Gliquidone]?
**A.** Dose.FC.LYZ.NS (log2 fold change) ([1]; dose 0.08 uM): 0.103; Z.LYZ.NS (standard z score) ([1]; dose 0.08 uM): 0.893; Dose.FC.LYZ.NS (log2 fold change) ([1]; dose 0.40 uM): 0.037; Z.LYZ.NS (standard z score) ([1]; dose 0.40 uM): 0.322; Dose.FC.LYZ.NS (log2 fold change) ([1]; dose 2.00 uM): 0.086; Z.LYZ.NS (standard z score) ([1]; dose 2.00 uM): 0.747; Dose.FC.LYZ.NS (log2 fold change) ([1]; dose 10.00 uM): 0.031; Z.LYZ.NS (standard z score) ([1]; dose 10.00 uM): 0.268; Dose.FC.LYZ.S (log2 fold change) ([2]; dose 0.08 uM): 0.101; Dose.FC.LYZ.S (log2 fold change) ([2]; dose 0.40 uM): 0.070; Dose.FC.LYZ.S (log2 fold change) ([2]; dose 2.00 uM): 0.006; Dose.FC.LYZ.S (log2 fold change) ([2]; dose 10.00 uM): −0.020; Dose.FC.CTG (log2 fold change) (ENR+CD organoids; dose 0.08 uM): 0.124; Dose.FC.CTG (log2 fold change) (ENR+CD organoids; dose 0.40 uM): 0.103; Dose.FC.CTG (log2 fold change) (ENR+CD organoids; dose 2.00 uM): 0.246; Dose.FC.CTG (log2 fold change) (ENR+CD organoids; dose 10.00 uM): 0.134

**Q.** `Nc1ncnc2c1c(-c1cccc(OCc3ccccc3)c1)cn2C1CC(CN2CCCC2)C1` (stereo not shown) [NVP-ADW742] was tested. Which Z.LYZ.NS ([1]; dose 0.08 uM) did it give?
**A.** 1.239

**Q.** What about the Z.LYZ.NS ([1]; dose 0.40 uM) of the same compound?
**A.** 1.499

**Q.** What about the Z.LYZ.NS ([1]; dose 2.00 uM) of the same compound?
**A.** −0.823

**Q.** What about the Z.LYZ.NS ([1]; dose 10.00 uM) of the same compound?
**A.** −1.172

**Q.** What about the Dose.FC.LYZ.NS [1, 3] of the same compound?
**A.** 0.142 log2 fold change

**Q.** What about the Dose.FC.LYZ.NS [1, 4] of the same compound?
**A.** 0.172 log2 fold change

**Q.** And the Dose.FC.LYZ.NS [1, 5]?
**A.** −0.095 log2 fold change

**Q.** And the Dose.FC.LYZ.NS [1, 6]?
**A.** −0.135 log2 fold change

**Q.** And the Dose.FC.LYZ.S [2, 3]?
**A.** 0.245 log2 fold change

**Q.** And the Dose.FC.LYZ.S [2, 4]?
**A.** 0.265 log2 fold change

**Q.** And the Dose.FC.LYZ.S [2, 5]?
**A.** −0.166 log2 fold change

**Q.** What about the Dose.FC.LYZ.S [2, 6] of the same compound?
**A.** −0.210 log2 fold change

**Q.** What about the Z.CTG (ENR+CD organoids; dose 0.08 uM) of the same compound?
**A.** 1.622

**Q.** What about the Z.CTG (ENR+CD organoids; dose 0.40 uM) of the same compound?
**A.** 1.583

**Q.** What about the Z.CTG (ENR+CD organoids; dose 2.00 uM) of the same compound?
**A.** 0.614

**Q.** And the Z.CTG (ENR+CD organoids; dose 10.00 uM)?
**A.** −1.112

**Q.** And the Dose.FC.CTG (ENR+CD organoids; [3])?
**A.** 0.679 log2 fold change

**Q.** What about the Dose.FC.CTG (ENR+CD organoids; [4]) of the same compound?
**A.** 0.663 log2 fold change

**Q.** What about the Dose.FC.CTG (ENR+CD organoids; [5]) of the same compound?
**A.** 0.257 log2 fold change

**Q.** And the Dose.FC.CTG (ENR+CD organoids; [6])?
**A.** −0.465 log2 fold change
